Entries after “also recorded” stand apart in the source; their conditions may differ.
What was measured:
[1] = system: all miRNAs expressed in MDA-MB-231 cells; assay: Global miRNA profiling in MDA-MB-231 cells; assay type: cell-based, human
Procedure: RNA Isolation and Quantitative Real-Time PCR (RT-qPCR). After treatment, total RNA was extracted and purified by using the Zymo Quick-RNA mini prep kit per the manufacturer's protocol. Reverse Transcription (RT) for mature miRNAs as well as pri- and pre-miR-21 was completed on 200 ng of RNA by using a miScript 11 RT kit (QIAGEN) according to manufacturer's protocol. RT of mRNAs was performed by using QScript kit (Quanta Bio). An Applied Biosystems QS5 384-well PCR system was used to complete qPCR experiments using Power Sybr Green Mater Mix (Life Technologies) as described previously^6.

[2] = molecular target: T1, RNase L / pre-miR-21 ternary complex (Homo sapiens, UniProt Q05823); assay: RNase L immunoprecipitation; assay type: cell-based; details: 1 μM
T1 construct: endogenous in cells; host or cells: MDA-MB-231
T1 sequence (Q05823 1-741): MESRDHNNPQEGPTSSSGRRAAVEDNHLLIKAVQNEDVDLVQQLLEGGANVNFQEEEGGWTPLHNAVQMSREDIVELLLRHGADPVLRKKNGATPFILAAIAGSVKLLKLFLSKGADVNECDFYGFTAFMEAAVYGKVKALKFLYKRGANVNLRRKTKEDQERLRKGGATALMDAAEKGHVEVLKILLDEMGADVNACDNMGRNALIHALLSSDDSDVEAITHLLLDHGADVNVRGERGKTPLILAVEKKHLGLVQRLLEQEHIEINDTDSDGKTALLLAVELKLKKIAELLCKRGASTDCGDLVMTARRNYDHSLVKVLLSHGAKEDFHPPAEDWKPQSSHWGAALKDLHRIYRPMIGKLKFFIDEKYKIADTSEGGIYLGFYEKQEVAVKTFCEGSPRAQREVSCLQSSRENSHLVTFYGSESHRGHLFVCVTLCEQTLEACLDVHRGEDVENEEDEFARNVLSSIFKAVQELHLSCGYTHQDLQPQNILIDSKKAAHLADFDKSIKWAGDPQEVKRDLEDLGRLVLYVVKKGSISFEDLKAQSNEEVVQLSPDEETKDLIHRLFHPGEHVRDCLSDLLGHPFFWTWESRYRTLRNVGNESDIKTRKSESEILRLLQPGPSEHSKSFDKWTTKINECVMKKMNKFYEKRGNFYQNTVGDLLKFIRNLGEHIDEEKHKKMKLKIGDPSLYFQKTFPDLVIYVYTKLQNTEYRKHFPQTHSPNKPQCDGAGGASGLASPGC
Procedure: RNase L Immunoprecipitation. MDA-MB-231 cells were seed in 6-well plates and were treated with vehicle, 4 (1 μM) or 5 (1 μM) when the cells reached ~70% confluency. After 48 h, the cells were harvested and lysed in 100 μL of M-PER buffer containing protease inhibitor and RNaseOUT recombinant Ribonuclease Inhibitor (Invitrogen) on ice for 20 min. The lysate was centrifuged at 13,000×g for 15 min, and the supernatants were incubated with Dynabeads Protein A (Life Technologies) bound to RNase L mouse primary antibody or β-actin mouse primary antibody overnight at 4° C. After incubation, the beads were washed with 1×DPBS containing 0.02% (v/v) Tween-20, and RNA was extracted by using a miRNeasy Mini Kit (Qiagen) per the manufacturer's instructions. RT-qPCR was performed as described above. Relative RNA levels were determined by ΔΔCt method by normalizing to 18S rRNA levels. Normalized fold change was calculated as previously described^6.

[3] = Quantitation of 1 and 2 in mouse plasma and tissue; assay type: in vivo; details: male, C57BL/6, mouse, lung, ip, 56 mg/kg; intraperitoneal injection; read-out: drug exposure in the lung
Procedure: Quantitation of 1 and 2 in mouse plasma and tissue. Male C57BL/6 mice (n=3 per dose; 5-7 weeks) were intraperitoneally (i.p.) injected with 1 (24, 49 or 81 mg/kg) or 2 (17, 34 or 56 mg/kg) in a formulation of DMSO/Tween-80/H2O (10/10/80). After 48 h, mice were euthanized, and blood, lung and kidney were collected. Tissues were immediately frozen. Blood was centrifuged to generate plasma and immediately frozen. On the day of analysis, tissues were homogenized, mixed with 5-times volume of acetonitrile, and filtered. Drug levels were determined by mass spectrometry using an ABSciex 5500 mass spectrometer using multiple reaction monitoring.

[4] = system: wild type (WT) mice (Col4a3+/+); assay: Wild type mice, control for Alport studies; assay type: in vivo, mouse
Procedure: Alport Mice Studies. Alport mice (Col4a3^−/−) and wild type (WT) mice (Col4a3^+/+) were obtained from the breeding of heterozygous […]. Urine was collected 1 day before the treatment, considered as Day 1. The treatment started at Day 2, at around 4 weeks of age. Alport mice were treated with vehicle or 2 as described for NOD/SCID mice in the “In Vivo Studies to Assess Metastasis of Breast Cancer to the Lung” section. Urine was collected every other day for analysis of albumin or creatine levels. After 6 weeks of treatment, the mice were euthanized on Day 43. One kidney was frozen in −80° C. for Western blot and RT-qPCR analyses. The other kidney was fixed in formalin for paraffin-embedding sectioning and further staining.
Evaluation of Kidney Function. The concentration of urine albumin was determined by using a Mouse Albumin ELISA Kit (Bethyl Laboratories Inc, E99-134) per the manufacturer's protocol. Urine creatinine level was measured by using a Urinary Creatinine Assay Kit (Fisher Scientific, 50-673-569) per the manufacturer's protocol.
Kidney Tissue Histology. Silver staining, PAS staining, and PPARα staining were performed by Histology Core at Scripps Research Florida. The anti-PPARα (Abcam, ab215270) was used at 1:1000 dilution. FISH imaging of miR-21 and pre-miR-21 were completed as described in “Lung Tissue Histology”.

Which results are given for `CCOC(=O)C1=C(Nc2ccccc2)S/C(=C\c2ccc(OCCOCCOCCOCCNC(=O)NCCN3CCN(c4ccc5[nH]c(-c6c(N)c7c(F)cccc7[nH]c6=O)nc5c4)CC3)c(O)c2)C1=O` [Compound 2, Ribotac-Dovitinib]?
selectivity among all miRNAs [1]: more selective than 1; also recorded: greater selectivity; enrichment of pre-miR-21 in RNase L immunoprecipitation ([2]; MDA-MB-231): immunoprecipitated pre-miR-21; also recorded: enriched; enrichment of pre-miR-210 in RNase L immunoprecipitation ([2]; pre-miRNA without 1-binding site): did not enrich; concentration at 48 h [3]: 1000 nM; body weight of WT mice ([4]; 56 mg/kg q.o.d., 6 weeks): gained weight at a similar rate as vehicle-treated mice; PPARα expression in kidneys ([4]; WT mice): no significant effect; urine albumin normalized to urine creatinine ([4]; WT mice, 56 mg/kg q.o.d.): no effect

Source: US12702715B2, “Targeted RNA degradation allows precision repurposing of protein-targeted small molecule medicines to RNA” (University of Florida Research Foundation, Incorporated, priority 2020, dated 2026)
